For the assay, the target named is T1, KATP channels (Mus musculus, UniProt P70170+Q61743).
T1 construct: Pacing perfused hearts isolated from WT and Kir6.2-KO mice; from tissue; host or cells: isolated, retrogradely perfused and paced hearts of wild-type mice
The experiment in a line: Rate-dependent action potential duration (APD90) in paced, perfused isolated hearts. Set-up: species or system mice. The note with it: isolated perfused paced WT mouse hearts, KATP-channel blockade with glyburide, FIG. 5B. An excerpt:
FIG. 5. […] The KATP channel-dependent component in rate-dependent action potential shortening was verified in WT hearts following KATP-channel blockade with the sulfonylurea blocker glyburide (FIG. 5B). […] Maximal oxygen consumption (V O2max), corresponding to the highest tolerated workload, reflects the maximal rate of energy production and the ability of the cardiovascular system to supply oxygen. Kir6.2-KO and WT mice achieved the same level of V O2max reflecting their equivalent oxidative phosphorylation potential. […] This was associated with high lactate levels in the blood (FIG. 5E), indicating compromise of the cardiovascular system. Activity-related energy expenditure largely reflects the performance of cardiac and skeletal muscle, tissues with abundant KATP channel expression. Accordingly, cardiac muscle was used as a model of striated musculature. As cardiac function and associated energy consumption depends on electrical determinants, the contribution of KATP channels in heart rate-dependent modulation of action potential duration and rate of oxygen consumption were tested. Telemetry recording of cardiac activity defined that both WT and Kir6.2-KO mice display a heart rate profile with a 400 to 800 beats per minute range (FIG. 5A). […]

T1 sequence (Q61743 whole entry, the tested form may be a part): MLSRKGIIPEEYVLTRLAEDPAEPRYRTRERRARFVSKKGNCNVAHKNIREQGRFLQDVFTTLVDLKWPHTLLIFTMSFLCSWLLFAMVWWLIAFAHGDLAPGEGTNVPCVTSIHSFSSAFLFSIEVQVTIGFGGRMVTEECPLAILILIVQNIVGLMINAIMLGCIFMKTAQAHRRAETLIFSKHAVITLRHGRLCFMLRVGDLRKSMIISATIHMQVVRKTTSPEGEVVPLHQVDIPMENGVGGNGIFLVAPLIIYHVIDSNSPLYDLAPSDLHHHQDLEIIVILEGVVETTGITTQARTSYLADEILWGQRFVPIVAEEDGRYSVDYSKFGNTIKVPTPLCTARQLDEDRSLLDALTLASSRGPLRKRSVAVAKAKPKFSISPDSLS
T1 sequence (P70170 whole entry, the tested form may be a part): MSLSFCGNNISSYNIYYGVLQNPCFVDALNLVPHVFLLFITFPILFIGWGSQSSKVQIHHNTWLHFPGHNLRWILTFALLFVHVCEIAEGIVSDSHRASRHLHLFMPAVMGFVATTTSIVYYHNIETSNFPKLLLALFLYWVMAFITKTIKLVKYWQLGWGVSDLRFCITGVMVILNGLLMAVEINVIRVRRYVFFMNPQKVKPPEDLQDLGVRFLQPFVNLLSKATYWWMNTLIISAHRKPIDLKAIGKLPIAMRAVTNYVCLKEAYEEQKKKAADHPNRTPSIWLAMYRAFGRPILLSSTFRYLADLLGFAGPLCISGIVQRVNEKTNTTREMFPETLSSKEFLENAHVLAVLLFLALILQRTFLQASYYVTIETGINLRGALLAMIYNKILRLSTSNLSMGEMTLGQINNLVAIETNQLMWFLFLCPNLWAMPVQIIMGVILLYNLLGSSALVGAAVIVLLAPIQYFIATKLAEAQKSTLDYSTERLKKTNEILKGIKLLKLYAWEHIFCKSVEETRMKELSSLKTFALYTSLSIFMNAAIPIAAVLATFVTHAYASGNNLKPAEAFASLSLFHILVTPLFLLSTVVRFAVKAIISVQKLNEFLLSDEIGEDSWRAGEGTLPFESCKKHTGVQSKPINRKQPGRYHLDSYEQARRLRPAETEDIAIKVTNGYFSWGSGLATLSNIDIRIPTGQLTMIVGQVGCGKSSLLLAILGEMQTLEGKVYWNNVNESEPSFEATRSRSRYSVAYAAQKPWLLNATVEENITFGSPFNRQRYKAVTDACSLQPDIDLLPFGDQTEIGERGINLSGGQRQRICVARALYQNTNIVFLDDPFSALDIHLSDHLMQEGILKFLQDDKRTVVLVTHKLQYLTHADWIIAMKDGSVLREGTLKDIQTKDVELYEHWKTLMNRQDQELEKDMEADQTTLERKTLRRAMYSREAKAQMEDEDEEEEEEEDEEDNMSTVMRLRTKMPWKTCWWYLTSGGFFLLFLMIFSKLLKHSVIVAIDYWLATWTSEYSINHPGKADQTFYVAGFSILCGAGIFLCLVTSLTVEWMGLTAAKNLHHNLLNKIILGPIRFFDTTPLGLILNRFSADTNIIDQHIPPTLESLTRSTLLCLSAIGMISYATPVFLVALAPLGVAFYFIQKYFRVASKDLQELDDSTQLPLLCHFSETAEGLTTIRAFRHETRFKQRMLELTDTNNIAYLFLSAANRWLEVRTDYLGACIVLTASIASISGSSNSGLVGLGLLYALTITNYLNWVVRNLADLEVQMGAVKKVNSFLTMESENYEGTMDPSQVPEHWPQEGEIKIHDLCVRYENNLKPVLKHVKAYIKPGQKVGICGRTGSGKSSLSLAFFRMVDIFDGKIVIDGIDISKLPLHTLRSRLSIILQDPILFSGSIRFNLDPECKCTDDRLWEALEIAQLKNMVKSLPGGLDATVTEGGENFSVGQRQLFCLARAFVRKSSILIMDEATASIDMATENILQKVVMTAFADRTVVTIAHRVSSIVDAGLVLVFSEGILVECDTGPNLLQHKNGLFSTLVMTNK

For the molecule `COc1ccc(Cl)cc1C(=O)NCCc1ccc(S(=O)(=O)NC(=O)NC2CCCCC2)cc1` [glyburide], the “KATP channel-dependent component in rate-dependent action potential shortening (monophasic APD90)” value is reported as “verified”.
